Data on 41 compounds can be found in patent US11241427B2, “Small molecule modulators of NR2F6 activity” (Regen Biopharma, Inc., priority 2015, dated 2022).

The assay addresses T1, NR2F6 (ligand binding domain, amino acids 163-404) (Homo sapiens, UniProt P10588).
T1 construct: HIS (N, cleaved yes); FLAG (N, cleaved yes); TEV site (N, cleaved yes); made in house; host or cells: E. coli BL21 (DE3)
T1 sequence (P10588 163-404): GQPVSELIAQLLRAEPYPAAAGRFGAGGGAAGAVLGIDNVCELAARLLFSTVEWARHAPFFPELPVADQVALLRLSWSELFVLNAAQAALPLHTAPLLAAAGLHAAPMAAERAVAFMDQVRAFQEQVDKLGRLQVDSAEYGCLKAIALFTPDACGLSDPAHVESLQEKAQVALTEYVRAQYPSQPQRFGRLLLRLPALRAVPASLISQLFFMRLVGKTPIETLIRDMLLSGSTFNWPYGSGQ
The assay can be described thus: Thermoshift analysis (TSA) of compound binding to NR2F6. As to conditions: for Tm: NR2F6 alone Tm 48 °C. On the procedure: The binding interaction between target protein NR2F6 and 139 compounds selected from an in silico screen was assessed using thermoshift analysis (TSA). Thermoshift is a physical technique used to determine the melting temperature of a protein. The interaction of the ligand to the folded state of the protein shifts the melting temperature. In the experimental system used, the NR2F6 protein is mixed with the ligand and the fluorescent dye SYPRO Orange®. The fluorescence is monitored over temperature gradient between 20 and 95° C. with 0.5° C. increment. The dye binds to the hydrophobic regions of molten globules and denatured proteins resulting in an increase of fluorescence. A plot of the fluorescence is obtained and used to determine the melting temperature in absence and presence of ligand.
The ligand binding domain of NR2F6 (amino acids 163-404) was cloned for soluble expression in E. coli with an N-terminal HIS-FLAG-TEV-tag. Expression was performed in BL21 (DE3) cells. In brief, a 12L E. coli culture was induced with IPTG in logarithmic phase and further incubated over night at 18° C. Cells were harvested via centrifugation, washed with buffer and stored at […] until purification.
The purification procedure performed consists of HIS affinity chromatography, tag cleavage, negative affinity chromatography, size exclusion chromatography and ion exchange chromatography.
Thermoshift analysis was performed on 139 Compounds that were stored as powder in DMSO stocks. A reaction volume of 25 μl was used, with reaction temperatures being increased in 0.5 increments from 20-95° C. in 96 well, PCR plates (Hard-Shell®, HSP-9655). The control was NR2F6 protein alone in 1% DMSO. For performing the reaction, a reaction buffer comprising of the following was utilized: 20 mM HEPES pH 6.85, 150 mM NaCl, 10% Glycerin and 0.5 mM TCEP.
The following pipetting sequence was used: 1) Add appropriate volume of target enzyme in reaction buffer; 2) Add appropriate volume of dye SYPRO Orange® in reaction buffer; 3) Add inhibitor in 100% DMSO (1% final DMSO conc); 4) Measure fluorescence
Fluorescence was quantified using a CFX Connect™ Real-Time PCR Detection System (BioRad)
An increase in melting temperature is indicative for compound binding.

Where [1] appears, read: Table 1.1, 100 μM compound, shift versus NR2F6 alone (Tm 48 °C), read-out: delta Tm.
Setting [2] is: Table 1.1, 100 μM compound, 0.5 mg/ml NR2F6, 1% DMSO.
Setting [3] is: Table 1.1, 100 μM compound, shift versus NR2F6 alone (Tm 48 °C).

Read-outs that look alike come from different tables or passages of the source.

For the compound `O=Cc1c2c(cc3c1=Nc1ccccc1-3)=Nc1ccccc1-2` [Cpd 17, 6-Formylindolo [3,2-B] carbazole], the Tm (Table 1.2, 100 μM compound) came to 50 °C.
As for `CC1=C(/C=C/C(C)=C/C=C/C(C)=C/C(=O)Nc2ccc(O)cc2)C(C)(C)CCC1` [Cpd 43, 4-Hydroxyphenylretinamide], under “Table 1.2, 100 μM compound”, the Tm was 50 °C.
On to `CC(C)(Oc1ccc(CCNC(=O)c2ccc(Cl)cc2)cc1)C(=O)O` [Cpd 61, Bezafibrate], for which the ΔTm at 100 µM under setting [1] was 0 °C.
Consider `O=C(Nc1ccccc1)c1cc([N+](=O)[O-])ccc1Cl` [Cpd 62, GW 9662], for which the Tm under setting [2] amounted to 48 °C. Moreover, under setting [3], the “delta Tm” value came out at 0 °C.
For `C[C@H](CCC(=O)NCC(=O)O)[C@H]1CC[C@H]2[C@@H]3[C@H](O)C[C@@H]4C[C@H](O)CC[C@]4(C)[C@H]3C[C@H](O)[C@]12C` [Cpd 63, Glycochalic acid], in that order: 48 °C and 0 °C.
For `C/C=C1\C(=O)C[C@H]2[C@@H]3CCC4=CC(=O)CC[C@]4(C)[C@H]3CC[C@]12C` [Cpd 64, Z-Guggulsterone] the same measures were 46 °C and −2 °C.
For `C[C@]12CC[C@@H]3c4ccc(O)cc4CC[C@H]3[C@@H]1CC[C@@H]2O` [Cpd 65, 17b-Estradiol] the same measures were 47 °C and −1 °C.
As to `Cc1cccc(Nc2cc(Cl)nc(SCC(=O)O)n2)c1C` [Cpd 66, WY-14643], the Tm under setting [2] turned out to be 47.5 °C. For the same compound, the ΔTm at 100 µM under setting [1] was -0.5 °C.
For `CCCc1c(OCCCCc2nnn[nH]2)ccc(C(C)=O)c1O` [Cpd 67, LY 171883], in that order: 46.5 °C and -1.5 °C.
For `Cc1ccc(C)c(OCCCC(C)(C)C(=O)O)c1` [Cpd 68, Gemfibrozil] the same measures were 47.5 °C and -0.5 °C.
For `CC(CCC(=O)NCC(=O)O)C1CCC2C3CCC4CC(O)CCC4(C)C3CC(O)C12C` (stereo not shown) [Cpd 69, Glycodeoxycholic acid], in that order: 46.5 °C and -1.5 °C.
With `Clc1cnc(Oc2ccc(Oc3ncc(Cl)cc3Cl)cc2)c(Cl)c1` [Cpd 70, TCPOBOP], the Tm under setting [2] amounted to 48 °C. Also, the “delta Tm” value under setting [3] is 0 °C.
In the case of `CC(=O)[C@H]1CC[C@H]2[C@@H]3CC=C4C[C@@H](O)CC[C@]4(C)[C@H]3CC[C@]12C` [Cpd 71, Pregnenoione], the Tm under setting [2] amounted to 48 °C. Under setting [3], the “delta Tm” value turned out to be 0 °C.
As for `CC1(COc2ccc(CC3SC(=O)NC3=O)cc2)CCCCC1` (stereo not shown) [Cpd 72, Ciglitazone], the ΔTm at 100 µM under setting [1] was -0.5 °C.
On to `CCCCC/C=C/C=C1/C(=O)C=C[C@@H]1C/C=C\CCCC(=O)O` [Cpd 73, 15-Deoxy-D12,14-prostaglandin J2], for which, under setting [2], the Tm came to 48 °C. For the same compound, the “delta Tm” value under setting [3] turned out to be 0 °C.
In the case of `CC(C)(Sc1ccc(CCN(CCCCC2CCCCC2)C(=O)NC2CCCCC2)cc1)C(=O)O` [Cpd 74, GW 7647], the Tm under setting [2] came out at 45.5 °C. Besides, the ΔTm at 100 µM under setting [1] is -2.5 °C.
With `C[C@H](CCC(=O)NCCS(=O)(=O)O)[C@H]1CC[C@H]2[C@@H]3[C@H](O)C[C@@H]4C[C@H](O)CC[C@]4(C)[C@H]3C[C@H](O)[C@]12C` [Cpd 75, Taurocholic acid], the ΔTm at 100 µM is -0.5 °C. Also, the Tm under setting [2] stood at 47.5 °C.
On to `CCCCCCCC/C=C\CCCCCCCC(=O)NCCO` [Cpd 76, N-Oleoylethanolamide], for which the Tm under setting [2] was 48.5 °C. The “delta Tm” value under setting [3] turned out to be 0.5 °C.
For `C[C@]12CCC(=O)C=C1CC[C@@H]1[C@@H]2CC[C@]2(C)C(=O)CC[C@@H]12` [Cpd 77, Androstenedione], the ΔTm at 100 µM was -1 °C. Moreover, under setting [2], the Tm is 47 °C.
Consider `Cc1c(C)c2c(c(C)c1O)CCC(C)(COc1ccc(CC3SC(=O)NC3=O)cc1)O2` (stereo not shown) [Cpd 79, Troglitazone], for which the ΔTm at 100 µM under setting [1] was 0 °C.
In the case of `N[C@@H](Cc1cc(I)c(Oc2ccc(O)cc2)c(I)c1)C(=O)O` [Cpd 80, 3,5-Diiodo-L-thyroine], the Tm under setting [2] came out at 48.5 °C. The “delta Tm” value under setting [3] is 0.5 °C.
With `C[C@H](CCC(=O)NCCS(=O)(=O)O)[C@H]1CC[C@H]2[C@@H]3CC[C@@H]4C[C@H](O)CC[C@]4(C)[C@H]3C[C@H](O)[C@]12C` [Cpd 81, Taurodeoxycholic acid], the Tm under setting [2] came to 47.5 °C. Further, the ΔTm at 100 µM under setting [1] was -0.5 °C.
For the compound `CC(C)c1onc(-c2c(Cl)cccc2Cl)c1COc1ccc(/C=C/c2cccc(C(=O)O)c2)c(Cl)c1` [Cpd 82, GW4064], the Tm under setting [2] came to 35 °C. Under setting [3], the “delta Tm” value was −13 °C.
With `C=C1/C(=C\C=C2/CCC[C@]3(C)[C@@H]([C@H](C)CCCC(C)(C)O)CC[C@@H]23)C[C@@H](O)C[C@@H]1O` [Cpd 83, 1a,25-Dihydroxyvitamin D3], the Tm under setting [2] amounted to 46.5 °C. The “delta Tm” value under setting [3] was −1.5 °C.
For `CCCCCC=CCC=CCC=CCC=CCCCC(=O)O` [Cpd 84, 5,8,11,14-Eicosatetranoic acid] the same measures were 46.5 °C and −1.5 °C.
On to `Clc1ccc(-c2nc3sccn3c2/C=N/OCc2ccc(Cl)c(Cl)c2)cc1` [Cpd 85, CITCO], for which the Tm under setting [2] turned out to be 48 °C. Besides, the “delta Tm” value under setting [3] was found to be 0 °C.
As for `N[C@@H](Cc1cc(I)c(O)c(I)c1)C(=O)O` [Cpd 86, 3,5-Diiodo-L-tyrosine], the ΔTm at 100 µM was 2 °C. Moreover, the Tm under setting [2] turned out to be 50 °C. Also, the Tm (Table 1.2, 100 μM compound) came out at 50 °C.
Consider `CO[C@H]1/C=C/O[C@@]2(C)Oc3c(C)c(O)c4c(O)c(c(/C=N/N5CCN(C)CC5)c(O)c4c3C2=O)NC(=O)/C(C)=C\C=C\[C@H](C)[C@H](O)[C@@H](C)[C@@H](O)[C@@H](C)[C@H](OC(C)=O)[C@@H]1C` [Cpd 87, Rifampicin], for which the Tm runs as follows: under setting [2], 49.5 °C; (Table 1.2, 100 μM compound) 49.5 °C. Also, the ΔTm at 100 µM under setting [1] was 1.5 °C.
Take `CC(C)=CCC/C(C)=C/CC/C(C)=C/CC/C(C)=C/CO` [Cpd 88, Geranylgeranoil]: the Tm under setting [2] stood at 47.5 °C. Further, under setting [3], the “delta Tm” value is −0.5 °C.
As for `CC/C=C\C/C=C\C/C=C\C/C=C\C/C=C\C/C=C\CCC(=O)O` [Cpd 89, Docosa-4Z,7Z,10Z,13Z,16Z,19Z-hexaenoic acid], under setting [2], the Tm came out at 47.5 °C. The ΔTm at 100 µM under setting [1] was -0.5 °C.
For the compound `COc1ccc(NS(=O)(=O)c2cccc(NC(=O)c3ccc(Cl)nc3)c2)cc1` [Cpd 116], under setting [2], the Tm was 47.5 °C. Besides, the “delta Tm” value under setting [3] was −0.5 °C.
For `CCN(CC)S(=O)(=O)c1ccc(/C=C/C(=O)Nc2ccc(Br)cc2F)cc1` [Cpd 117] the same measures were 48.5 °C and 0.5 °C.
On to `Clc1ccc(OCCN2CCN(c3ncnc4sccc34)CC2)cc1` [Cpd 120], for which the Tm under setting [2] is 46.5 °C. Under setting [3], the “delta Tm” value is −1.5 °C.
For `CC(=O)c1c(C)[nH]c(C(=O)OCCCCN2C(=O)c3ccccc3C2=O)c1C` [Cpd 121] the same measures were 48 °C and 0 °C.
For `Cc1cc(-n2c(C)cc(C(=O)CSc3ncnc4ccccc34)c2C)no1` [Cpd 122], in that order: 47.5 °C and −0.5 °C.
Take `CCN(CC)S(=O)(=O)c1cccc(NC(=O)COC(=O)c2[nH]c(C)c(C(C)=O)c2C)c1` [Cpd 123]: the Tm under setting [2] amounted to 47.5 °C. The “delta Tm” value under setting [3] was −0.5 °C.
For `CC(=O)c1c(C)[nH]c(C(=O)COc2cc(C)ccc2C(C)C)c1C` [Cpd 125], in that order: 47.5 °C and −0.5 °C.
For `COc1ccc(CNc2ncnc3ccccc23)cc1` [Cpd 126], in that order: 47.5 °C and −0.5 °C.
For `Cc1nn(C)c(C)c1NC(=O)COc1ccc(Cl)cc1Br` [Cpd 127], in that order: 47.5 °C and −0.5 °C.
As to `N#CCSc1nnc(-c2sc3ccccc3c2Cl)o1` [Cpd 128], under setting [2], the Tm was found to be 48 °C. Further, the “delta Tm” value under setting [3] came out at 0 °C.
For the compound `COc1ccc(CN(C)c2ccc(S(=O)(=O)N3CCN(C)CC3)cc2[N+](=O)[O-])cc1OC` [Cpd 129], the Tm under setting [2] is 47.5 °C. Also, the “delta Tm” value under setting [3] is −0.5 °C.
